Experimental data as given in patent publication US20090182020A1, “SUBSTITUTED BIS(HETERO)AROMATIC N--ETHYLPROPIOLAMIDES AND USE THEREOF FOR PRODUCTION OF MEDICAMENTS” (GRUNENTHAL GMBH, priority 2005, published 2009).

Biological target: T1, mGluR5 receptor (pig) (Sus scrofa, UniProt I3LUI7)
T1 construct: 450 μg protein from brain homogenate is incubated with 5 nM ^3[H]-MPEP; from tissue; host or cells: pig brain halves without medulla, cerebellum and pons
Experiment: [3H]-MPEP bond in the mGluR5 receptor bond assay (pig brain homogenate)
Assay type: binding
Details: 5 nM [3H]-MPEP; pig brain homogenate
Experimental: I. Method for Determining the Inhibition of the [^3H]-MPEP Bond in the mGluR5 Receptor Bond Assay
Pig brain homogenate is produced by homogenisation (Polytron PT 3000, Kinematica AG, 10,000 rpm for 90 seconds) of pig brain halves without medulla, cerebellum and pons in buffer pH 8.0 (30 mM Hepes, Sigma, order no. H3375+1 tablet complete to 100 ml, Roche Diagnostics, order no. 1836145) in the ratio 1:20 (brain weight/volume) and differential centrifugation at 900×g and 40,000×g. In each case, 450 μg protein from brain homogenate is incubated with 5 nM ^3[H]-MPEP (Tocris, order no. […]
Thereafter, the batches are filtered with the help of a Brandel Cell Harvester (Brandel, TYP Robotic 9600) on unifilter plates with glass fibre filter mats (Perkin Elmer, order no. 6005177) and subsequently washed with buffer (as above) 3 times with in each case 250 μl per sample. The filter plates are subsequently dried for 60 min at 55° C. 30 μL Ultima Gold™ scintillator (Packard BioScience, order no. 6013159) is subsequently added per well and the samples are measured after 3 hours on the β-counter (Mikrobeta, Perkin Elmer). The unspecific bond is determined by addition of 10 μM MPEP (Tocris, order no. 1212).

T1 sequence (I3LUI7 19-1212): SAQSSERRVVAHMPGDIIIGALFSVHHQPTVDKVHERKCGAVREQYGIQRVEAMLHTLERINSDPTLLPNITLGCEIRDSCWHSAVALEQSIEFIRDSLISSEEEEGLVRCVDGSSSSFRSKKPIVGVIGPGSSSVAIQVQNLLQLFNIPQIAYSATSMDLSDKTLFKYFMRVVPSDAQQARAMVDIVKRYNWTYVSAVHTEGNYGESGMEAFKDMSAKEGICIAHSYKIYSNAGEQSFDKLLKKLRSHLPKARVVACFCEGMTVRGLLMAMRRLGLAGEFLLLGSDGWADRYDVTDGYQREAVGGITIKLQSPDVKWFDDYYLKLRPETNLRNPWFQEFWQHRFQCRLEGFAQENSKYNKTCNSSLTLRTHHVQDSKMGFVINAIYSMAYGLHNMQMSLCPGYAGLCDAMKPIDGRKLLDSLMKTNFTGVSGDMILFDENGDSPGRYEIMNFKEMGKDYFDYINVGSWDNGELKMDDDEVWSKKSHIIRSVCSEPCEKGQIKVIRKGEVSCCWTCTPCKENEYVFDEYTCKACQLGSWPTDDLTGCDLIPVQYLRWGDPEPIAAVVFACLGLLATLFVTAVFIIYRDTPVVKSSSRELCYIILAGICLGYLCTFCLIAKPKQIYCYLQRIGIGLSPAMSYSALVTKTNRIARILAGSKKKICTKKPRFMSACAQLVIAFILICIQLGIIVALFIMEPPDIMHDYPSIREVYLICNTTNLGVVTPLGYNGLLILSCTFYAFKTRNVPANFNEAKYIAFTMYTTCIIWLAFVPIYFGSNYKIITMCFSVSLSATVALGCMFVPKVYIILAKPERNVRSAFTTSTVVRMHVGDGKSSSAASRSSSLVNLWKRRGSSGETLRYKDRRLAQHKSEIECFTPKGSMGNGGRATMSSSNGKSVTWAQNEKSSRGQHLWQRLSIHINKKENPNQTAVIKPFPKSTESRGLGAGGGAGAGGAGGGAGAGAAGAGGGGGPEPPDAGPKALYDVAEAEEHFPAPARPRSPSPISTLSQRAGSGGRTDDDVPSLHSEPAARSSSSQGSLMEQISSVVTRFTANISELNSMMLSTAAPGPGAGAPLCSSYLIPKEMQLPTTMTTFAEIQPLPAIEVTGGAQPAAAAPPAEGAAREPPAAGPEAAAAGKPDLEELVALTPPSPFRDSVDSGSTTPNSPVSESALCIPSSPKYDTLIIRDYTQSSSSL

IC50 [nM]	SMILES
12	CN(CCc1ccccc1)C(=O)C#Cc1cccc(Cl)c1 [Example 1, 3-(3-chlorophenyl)-N-methyl-N-phenethylpropiolamide]
70	CC(C)N(CCc1ccccc1)C(=O)C#Cc1cccc(Cl)c1 [Example 238, 3-(3-chlorophenyl)-N-isopropyl-N-phenethylpropiolamide]
8	CN(CCc1cccc(F)c1)C(=O)C#Cc1cccc(Cl)c1 [Example 221, 3-(3-chlorophenyl)-N-(3-fluorophenethyl)-N-methylpropiolamide]
8	Cc1ccccc1CCN(C)C(=O)C#Cc1cccc(Cl)c1 [Example 226, 3-(3-chlorophenyl)-N-methyl-N-(2-methylphenethyl)propiolamide]
280	Cc1ccc(CCN(C)C(=O)C#Cc2cccc(Cl)c2)cc1 [Example 228, 3-(3-chlorophenyl)-N-methyl-N-(4-methylphenethyl)propiolamide]
11	CN(CCc1cccs1)C(=O)C#Cc1cccc(Cl)c1 [Example 245, 3-(3-chlorophenyl)-N-methyl-N-(2-(thiophene-2-yl)ethyl)propiolamide]
2	CC(Cc1ccccc1)NC(=O)C#Cc1cccc(Cl)c1 (stereo not drawn) [Example 242, 3-(3-chlorophenyl)-N-(1-phenylpropane-2-yl)propiolamide]

SMILES	IC50 [nM]
CC(Cc1ccccc1)N(C)C(=O)C#Cc1cccc(Cl)c1 (stereo not drawn) [Example 241, 3-(3-chlorophenyl)-N-methyl-N-(1-phenylpropane-2-yl)propiolamide]	13

Same assay, conditions: 10 μM test compound; 5 nM [3H]-MPEP; 450 μg protein pig brain homogenate; 60 min room temperature

inhibition at 10 µM [%]	SMILES
51	Cc1ccc(C#CC(=O)N(C)CCc2ccccc2)c(C)c1 [Example 47, 3-(2,4-dimethylphenyl)-N-methyl-N-phenethylpropiolamide]
65	O=C(C#Cc1cccs1)NCCc1ccc(Cl)cc1 [Example 190, N-(4-chlorophenethyl)-3-(thiophene-2-yl)propiolamide]
70	COc1cccc(C#CC(=O)N(C)CCc2ccccc2)c1 [Example 80, 3-(3-methoxyphenyl)-N-methyl-N-phenethylpropiolamide]
31	O=C(C#Cc1cccs1)NCC(c1ccccc1)c1ccccc1 [Example 96, N-(2,2-diphenylethyl)-3-(thiophene-2-yl)propiolamide]
31	COc1ccccc1CCNC(=O)C#Cc1ccc(F)cc1F [Example 193, 3-(2,4-difluorophenyl)-N-(2-methoxyphenethyl)propiolamide]
96	Cc1ccc(CCNC(=O)C#Cc2cccc(C#N)c2)cc1 [Example 97, 3-(3-cyanophenyl)-N-(4-methylphenethyl)propiolamide]
33	O=C(C#Cc1ccc(F)cc1F)NCCc1cccs1 [Example 117, 3-(2,4-difluorophenyl)-N-(2-(thiophene-2-yl)ethyl)propiolamide]
96	COc1ccccc1CCNC(=O)C#Cc1cccc(C#N)c1 [Example 191, 3-(3-cyanophenyl)-N-(2-methoxyphenethyl)propiolamide]
67	O=C(C#Cc1ccccc1)NCCc1ccc(Cl)cc1 [Example 137, N-(4-chlorophenethyl)-3-phenylpropiolamide]
65	COc1cccc(C#CC(=O)NCCc2ccc(Cl)cc2)c1 [Example 133, N-(4-chlorophenethyl)-3-(3-methoxyphenyl)propiolamide]
79	O=C(C#Cc1cccs1)NCCc1ccccc1 [Example 85, N-phenethyl-3-(thiophene-2-yl)propiolamide]
83	COc1cccc(C#CC(=O)NCCc2ccccc2OC)c1 [Example 132, N-(2-methoxyphenethyl)-3-(3-methoxyphenyl)propiolamide]

Tested on: rats
Experiment: Formaline test in rats (phase 2, pain rate)
Assay type: in vivo, rat
Details: i.v. administration at 21.5 mg/kg, formaline test phase 2
Experimental: III. Formaline Test in Rats:
The formaline test (Dubuisson, D. and Dennis, S. G., 1977, Pain, 4, 161-174) represents a model for acute and chronic pain. A biphasic nociceptive reaction, which is recorded by observation of three clearly differentiable behavioural patterns, is induced by a single formaline injection into the dorsal side of a rear paw in freely mobile test animals. The reaction has two phases: Phase 1=Immediate reaction (duration up to 10 min; paw shaking, licking), Phase 2=Late reaction (after a rest phase; likewise, paw shaking, licking; duration up to 60 min). The 1st phase reflects a direct stimulation of the peripheral nocisensors with high spinal nociceptive input or glutamate release (acute pain phase); the 2nd phase reflects a spinal and peripheral hypersensitisation (chronic pain phase). In the investigations presented here, the chronic pain component (phase 2) was evaluated.
Formaline with a volume of 50 μl and a concentration of 5% is administered subcutaneously into the dorsal side of the right rear paw of each animal. […] The calculation of PR is performed on the basis of a numerical weighting (=in each case factor 1, 2, 3) of the observed forms of behaviour (corresponding behavioural score 1, 2, 3) and is calculated with the following formula: […]

SMILES	inhibition of the pain reaction [%]
CN(CCc1ccccc1)C(=O)C#Cc1cccc(Cl)c1 [Example 1, 3-(3-chlorophenyl)-N-methyl-N-phenethylpropiolamide]	60
